Test results taken from patent publication US6602864B1, “Sulfonic acid or sulfonylamino N-(heteroaralkyl)-azaheterocyclylamide compounds” (Aventis Pharma Deutschland GmbH, priority 1996, dated 2003).
Counter-ions that a name gives are not always drawn.

Target: Factor Xa (Homo sapiens, UniProt P00742)
Assay: Enzyme assay with purified enzyme and peptide-p-nitroanilide substrate (IC50, apparent Ki)
Assay type: biochemical
Details: library product after deprotection with 20% TFA; read-out: IC50 against Factor Xa
Protocol: All enzyme assays are carried out at room temperature in 96-well microtiter plates using a final enzyme concentration of 1 nM. The concentrations of factor Xa and thrombin are determined by active site titration and the concentrations of all other enzymes are based on the protein concentration supplied by the manufacturer. Compounds according to the invention are dissolved in DMSO, diluted with their respective buffers and assayed at a maximal final DMSO concentration of 1.25%. Compound dilutions are added to wells containing buffer and enzyme and pre-equilibrated for […]. The enzyme reactions are initiated by the addition of substrate and the color developed from the hydrolysis of the peptide-p-nitroanilide substrates is monitored continuously for 5 minutes at 405 nm on a Vmax microplate reader (Molecular Devices). Under these conditions, less than 10% of the substrate is utilized in all assays. […] The apparent Ki values are then determined according to the Cheng-Prusoff equation (IC50=Ki [1+[S]/Km]) assuming competitive inhibition kinetics.

Sequence of Factor Xa (P00742 235-488 limits assumed): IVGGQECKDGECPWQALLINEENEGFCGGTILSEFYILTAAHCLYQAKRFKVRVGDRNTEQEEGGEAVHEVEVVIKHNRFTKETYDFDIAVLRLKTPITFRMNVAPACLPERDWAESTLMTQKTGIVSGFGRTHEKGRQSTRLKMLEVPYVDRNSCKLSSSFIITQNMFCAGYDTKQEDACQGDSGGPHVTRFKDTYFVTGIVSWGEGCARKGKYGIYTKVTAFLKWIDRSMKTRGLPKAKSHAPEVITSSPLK
Sequence of Factor Xa (P00742 41-179 partner limits assumed): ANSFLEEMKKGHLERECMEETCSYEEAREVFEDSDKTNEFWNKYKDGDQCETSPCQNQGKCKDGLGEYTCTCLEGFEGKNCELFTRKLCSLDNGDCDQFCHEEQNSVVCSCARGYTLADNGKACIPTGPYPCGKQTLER

IC50: < 500 nM
Structure (SMILES): O=C1[C@@H](NS(=O)(=O)c2cc3ccc(Cl)cc3s2)CCN1Cc1cc2ncccc2[nH]1 [Example 46, 6-Chloro-benzo[b]thiophene-2-sulfonic Acid [2-oxo-1-(1H-Pyrrolo[3,2-b]pyridin-2-ylmethyl)-pyrrolidin-3-(S)-yl]-amide Trifluoroacetate]
